Source: patent US12544370B2, “Methods for cancer therapy” (ASCENTAGE PHARMA (SUZHOU) CO., LTD., priority 2018, dated 2026)

Experiments:
[1] = Phase I study, pharmacokinetics (Example 1); assay type: in vivo, human
[2] = system: patients with chronic phase (CP/CML-CP) or accelerated phase (AP/CML-AP) CML resistant to or intolerant of ≥2 prior TKIs or with BCR-ABL T315I; experiment: Phase 1 trial in resistant CML, further efficacy (Example 2); assay type: in vivo, human
Description: The eligible patients received continuous treatment until disease progression or unacceptable toxicity, consent withdrawal, or death. The primary efficacy endpoints were major cytogenetic response (MCyR) for CP and complete hematological response (CHR) for AP. MCyR includes partial cytogenetic response (PCyR) and complete cytogenetic response (CCyR). Blood samples were collected at various time points on Day 1-2 and Day 27-28 during cycle 1 for PK analyses.

[3] = system: human CML xenograft model; experiment: Subcutaneous tumors, human CML xenograft model; assay type: in vivo
[4] = system: murine Ba/F3 cells expressing BCR-ABL^WT; experiment: Subcutaneous tumors, isogenic Ba/F3 BCR-ABL WT model; assay type: in vivo
[5] = system: murine Ba/F3 cells expressing BCR-ABL^T315I; experiment: Subcutaneous tumors, isogenic Ba/F3 BCR-ABL T315I model; assay type: in vivo
[6] = target: Ba/F3 containing BCR-ABL mutation E255K (Homo sapiens, UniProt P00519, E255K, cells depend on it); conditions: read-out: Antiproliferation Effect (IC50)
Description: (§1) Ba/F3 cells stably expressing BCR-ABL (F359V, H396R, E255K, Y253H, T315I, F317L) mutations were provided by the Institute of Life and Health, Guangzhou Academy of Sciences.
(§2) 1. The mutated Ba/F3 cell line stably expressing BCR-ABL (E255V, T315M, Y253H/E255V, Y253H/T315I, Y253H/F359V, T315I/F317L, F317L/F359V) mutation was constructed by electro-transformation method, the Ba/F3 cell line stably expressing the BCR-ABL (E255V/T315I, T315I/F359V) mutation was constructed by lentivirus infection method.
(§3) 2. Effect of drugs on the proliferation of BaF3 cells stably transfected with BCR-ABL single mutation or complex mutation by WST assay
(§4) The dilution was used as a cell blank control (excluding the sample to be tested, which was added to the cells). In addition, a negative control (excluding the sample to be tested and cells) was prepared. In addition to the negative control wells, 100 μl of complete medium cell suspension was added to each well. The dilution was added to the negative control wells at 100 μl/well. 3 repeated wells were set in the experiment. […] 20 μl of CCK-8 detection solution (Shanghai Life iLab Biotech Co., LTD, Cat #D3100L4057) was added to each well, incubating at 37° C. for 2 hours in a CO2 incubator. The OD value was measured at A450 nm by a microplate reader.
(§5) The percentage of cell viability was calculated using the following formula: (O.D. test well-O.D. negative control well)/(O.D. cell control well-O.D. negative control well)×100
(§6) The IC50 was calculated using a non-linear regression data analysis method of Graphpad Prism 6.0 software ([…]).

[7] = target: Ba/F3 containing BCR-ABL mutation E255V (Homo sapiens, UniProt P00519, E255V, cells depend on it); conditions: read-out: Antiproliferation Effect (IC50)
Description: as §1, §2, §3, §4, §5, §6

[8] = target: Ba/F3 containing BCR-ABL mutation E255V/T315I (Homo sapiens, UniProt P00519, E255V/T315I, cells depend on it); conditions: read-out: Antiproliferation Effect (IC50)
Description: as §1, §2, §3, §4, §5, §6

[9] = target: Ba/F3 containing BCR-ABL mutation F359V (Homo sapiens, UniProt P00519, F359V, cells depend on it); conditions: read-out: Antiproliferation Effect (IC50)
Description: as §1, §2, §3, §4, §5, §6

[10] = target: Ba/F3 containing BCR-ABL mutation H396R (Homo sapiens, UniProt P00519, H396R, cells depend on it); conditions: read-out: Antiproliferation Effect (IC50)
Description: as §1, §2, §3, §4, §5, §6

[11] = target: Ba/F3 containing BCR-ABL mutation T315I (Homo sapiens, UniProt P00519, T315I, cells depend on it); conditions: read-out: Antiproliferation Effect (IC50)
Description: as §1, §2, §3, §4, §5, §6

[12] = target: Ba/F3 containing BCR-ABL mutation T315I/F317L (Homo sapiens, UniProt P00519, T315I/F317L, cells depend on it); conditions: read-out: Antiproliferation Effect (IC50)
Description: as §1, §2, §3, §4, §5, §6

[13] = target: Ba/F3 containing BCR-ABL mutation T315I/F359V (Homo sapiens, UniProt P00519, T315I/F359V, cells depend on it); conditions: read-out: Antiproliferation Effect (IC50)
Description: as §1, §2, §3, §4, §5, §6

[14] = target: Ba/F3 containing BCR-ABL mutation T315M (Homo sapiens, UniProt P00519, T315M, cells depend on it); conditions: read-out: Antiproliferation Effect (IC50)
Description: as §1, §2, §3, §4, §5, §6

[15] = target: Ba/F3 containing BCR-ABL mutation Y253H (Homo sapiens, UniProt P00519, Y253H, cells depend on it); conditions: read-out: Antiproliferation Effect (IC50)
Description: as §1, §2, §3, §4, §5, §6

[16] = target: Ba/F3 containing BCR-ABL mutation Y253H/F359V (Homo sapiens, UniProt P00519, Y253H/F359V, cells depend on it); conditions: read-out: Antiproliferation Effect (IC50)
Description: as §1, §2, §3, §4, §5, §6

[17] = target: Ba/F3 containing BCR-ABL mutation Y253H/T315I (Homo sapiens, UniProt P00519, Y253H/T315I, cells depend on it); conditions: read-out: Antiproliferation Effect (IC50)
Description: as §1, §2, §3, §4, §5, §6

[18] = Table 4, AP-CML, With T315I mut., 11 evaluable
[19] = Table 4, AP-CML, With T315I mut., 11 evaluated
[20] = Table 4, AP-CML, Without T315I mut., 3 evaluable
[21] = Table 4, AP-CML, Without T315I mut., 3 evaluated
[22] = Table 4, CP-CML, With T315I mut., 48 evaluable
[23] = Table 4, CP-CML, With T315I mut., 51 evaluated
[24] = Table 4, CP-CML, Without T315I mut., 33 evaluable
[25] = Table 4, CP-CML, Without T315I mut., 35 evaluated

## Cc1ccc(C(=O)Nc2ccc(CN3CCN(C)CC3)c(C(F)(F)F)c2)cc1C#Cc1cnc2[nH]ncc2c1 [compound of formula (I-A), 3-(2-(1H-pyrazolo[3,4-b]pyridin-5-yl)ethynyl)-4-methyl-N-(4-((4-methylpiperazin-1-yl)methyl)-3-(trifluoromethyl)phenyl)-benzamide]
[1]; oral, 1 mg to 60 mg
  time at which peak concentration was reached: 2 to 8 h
[1]; single or multiple oral dose 1 to 60 mg
  dose proportionality of Cmax and AUC0-t: approximately dose proportional increase
[2]; AP patients (FIG. 7B)
  progression free survival (PFS) rate at 18-month: 61%
[2]; CP patients (FIG. 7B)
  progression free survival (PFS) rate at 18-month: 94%
[2]; Example 2
  anti-leukemic activity by dose: potent anti-leukemic activities at doses ≥12 mg QOD
[2]; Example 2, 68 evaluable patients with non-CHR at baseline (CP+AP)
  CHR achieved: 63 (92.6%) n (%)
[2]; Table 4, AP-CML, All Patients, 14 evaluated
  Complete molecular response, percent: (14.3%)
[2]; Table 4, AP-CML, With T315I mut., 10 evaluable
  Complete hematological response, percent: (80.0%)
[2]; [18]
  Complete cytogenetic response, percent: (45.5%)
  Major cytogenetic response, percent: (54.5%)
[2]; [19]
  Complete molecular response, percent: (18.2%)
  Major/Complete molecular response, percent: (45.5%)
[2]; [20]
  Complete cytogenetic response: 0 n(%)
  Complete hematological response: 3 (100.0%) n(%)
  Major cytogenetic response: 0 n(%)
[2]; [21]
  Complete molecular response: 0 n(%)
  Major/Complete molecular response: 0 n(%)
[2]; Table 4, CP-CML, All Patients, 86 evaluated
  Complete molecular response, percent: (20.9%)
[2]; Table 4, CP-CML, With T315I mut., 33 evaluable
  Complete hematological response, percent: (97.0%)
[2]; [22]
  Complete cytogenetic response, percent: (77.1%)
  Major cytogenetic response, percent: (81.3%)
[2]; [23]
  Complete molecular response, percent: (29.4%)
  Major/Complete molecular response, percent: (52.9%)
[2]; Table 4, CP-CML, Without T315I mut., 22 evaluable
  Complete hematological response, percent: (90.9%)
[2]; [24]
  Complete cytogenetic response, percent: (36.4%)
  Major cytogenetic response, percent: (51.5%)
[2]; [25]
  Complete molecular response, percent: (8.6%)
  Major/Complete molecular response, percent: (14.3%)
[3]
  effect on subcutaneous tumors: complete regression
[4]
  effect on subcutaneous tumors: complete regression
[5]
  effect on subcutaneous tumors: complete regression
[6]
  GI50: 22 ± 13 nM
[7]
  GI50: 13.5 ± 1 nM
[8]
  GI50: 26 ± 11 nM
[9]
  GI50: 281 ± 187 nM
[10]
  GI50: 274 ± 82 nM
[11]
  GI50: 24 ± 10 nM
[12]
  GI50: 114 ± 9 nM
[13]
  GI50: 7 ± 1 nM
[14]
  GI50: 217 ± 131 nM
[15]
  GI50: 7 ± 1 nM
[16]
  GI50: 100 ± 81 nM
[17]
  GI50: 111 ± 1 nM
